Test results published in US10087188B2, “Benzamide imidazopyrazine Btk inhibitors” (MERCK SHARP & DOHME CORP., priority 2014, dated 2018).
Read-outs that look alike come from different tables or passages of the source.

How the values were obtained:
[1] = test system: HeLa cells; test: [3H] Adenosine uptake assay; format: cell-based; settings: accumulation of tritiated adenosine into HeLa cells, compound concentration range 10 μM to 0.032 nM, read-out: ADU inhibition IC50 (adenosine uptake inhibition potency)
Method in brief: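 Accumulation of tritiated adenosine in adherent HeLa cells, detected by scintillant-plate coincidence counting, gives IC50 via 4-parameter robust fit. Compound (constant 0.25% DMSO) applied 30 min ahead, then 60 min radiolabel exposure (added from 500 nM solution), ambient conditions, HBSS with 5% FBS.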

[2] = target: BTK enzyme (recombinant full-length BTK, hBTK) (Homo sapiens (Human), UniProt Q06187); test: Btk enzyme activity assay, LANCE TR-FRET; format: biochemical; settings: 50 pM hBTK, 2 μM biotin-A5-peptide, 25 μM ATP; 60 minute compound & enzyme incubation; read-out: BTK binding IC50
Procedure: Btk Enzyme Activity Assay Methods
BTK enzymatic activity was determined with the LANCE (Lanthanide Chelate Excite) TR-FRET (Time-resolved fluorescence resonance energy transfer) assay. […] After 60 minutes incubation with detection reagents, reaction plates were read on a PerkinElmer EnVision plate reader using standard TR-FRET protocol.

Chain of BTK enzyme (recombinant full-length BTK, hBTK) (Q06187 whole entry): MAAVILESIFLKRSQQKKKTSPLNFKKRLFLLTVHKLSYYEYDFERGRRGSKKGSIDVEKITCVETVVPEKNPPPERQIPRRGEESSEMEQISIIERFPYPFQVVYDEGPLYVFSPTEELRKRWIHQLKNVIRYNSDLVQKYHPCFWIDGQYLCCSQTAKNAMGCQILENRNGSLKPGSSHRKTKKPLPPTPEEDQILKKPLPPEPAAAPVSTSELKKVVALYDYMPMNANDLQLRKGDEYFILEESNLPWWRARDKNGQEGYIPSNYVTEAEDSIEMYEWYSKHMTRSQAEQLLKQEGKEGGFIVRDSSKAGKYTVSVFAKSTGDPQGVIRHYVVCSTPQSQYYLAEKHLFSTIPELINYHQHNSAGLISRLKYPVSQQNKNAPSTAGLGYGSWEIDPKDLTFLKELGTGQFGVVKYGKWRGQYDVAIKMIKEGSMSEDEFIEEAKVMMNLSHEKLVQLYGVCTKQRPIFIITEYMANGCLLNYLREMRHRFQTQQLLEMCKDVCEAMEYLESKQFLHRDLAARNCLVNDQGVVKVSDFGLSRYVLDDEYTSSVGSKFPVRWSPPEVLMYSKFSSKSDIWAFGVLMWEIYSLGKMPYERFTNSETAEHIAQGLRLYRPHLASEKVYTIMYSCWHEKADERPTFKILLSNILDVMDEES

| IC50 [1] [nM] | IC50 [2] [nM] | IC50 ([1]; Homo sapiens, HeLa) [nM] | SMILES |
| --- | --- | --- | --- |
| 10000 | 57.2 |  | CC(C)C1(C(=O)O)CCC(C)(c2nc(-c3ccc(C(=O)Nc4cc(C(F)(F)F)ccn4)cc3)c3c(N)nccn23)C1 (stereo not shown) [Example 145, 3-[8-amino-1-(4-{[4-(trifluoromethyl)pyridin-2-yl]carbamoyl}phenyl)imidazo[1,5-a]pyrazin-3-yl]-3-methyl-1-(1-methylethyl) cyclopentane-carboxylic acid] |
| 10000 | 456 |  | CC(C)C1(C(=O)O)CCC(C)(c2nc(-c3ccc(C(=O)Nc4cc(C(F)(F)F)ccn4)cc3)c3c(N)nccn23)C1 (stereo not shown) [Example 146, 3-[8-amino-1-(4-{[4-(trifluoromethyl)pyridin-2-yl]carbamoyl}phenyl)imidazo[1,5-a]pyrazin-3-yl]-3-methyl-1-(1-methylethyl) cyclopentane-carboxylic acid] |
|  | 7 | 10000 | CC1(C)[C@@H](C(=O)O)CC[C@]1(C)c1nc(-c2ccc(C(=O)Nc3cc(C(F)(F)F)ccn3)cc2)c2c(N)nccn12 [Example 147, (1S,3S)-3-[8-amino-1-(4-{[4-(trifluoromethyl)pyridin-2-yl]carbamoyl}phenyl)imidazo[1,5-a]pyrazin-3-yl]-2,2,3-trimethylcyclopentane carboxylic acid] |
|  | 7.2 | 10000 | CC1(C)[C@H](C(=O)O)CC[C@@]1(C)c1nc(-c2ccc(C(=O)Nc3cc(C(F)(F)F)ccn3)cc2)c2c(N)nccn12 [Example 148, (1R,3R)-3-[8-amino-1-(4-{[4-(trifluoromethyl)pyridin-2-yl]carbamoyl}phenyl)imidazo[1,5-a]pyrazin-3-yl]-2,2,3-trimethylcyclopentane carboxylic acid] |
|  | 0.56 | 6870 | CCOc1cc(C(=O)Nc2cc(C(F)(F)F)ccn2)c(F)cc1-c1nc(C23CCC(C(=O)O)(CC2)CC3)n2ccnc(N)c12 [Example 149, 4-[8-amino-1-(2-ethoxy-5-fluoro-4-{[4-(trifluoromethyl)pyridin-2-yl]carbamoyl}phenyl)imidazo[1,5-a]pyrazin-3-yl]bicyclo[2.2.2] octane-1-carboxylic acid] |
|  | 1.3 | 6650 | Nc1nccn2c([C@@H]3CCCN(C(=O)C4CC4C(=O)O)C3)nc(-c3ccc(C(=O)Nc4cc(C(F)(F)F)ccn4)cc3)c12 (stereo partly drawn) [Example 150, 2-({(3R)-3-[8-amino-1-(4-{[4-(trifluoromethyl)pyridin-2-yl]carbamoyl}phenyl)imidazo[1,5-a]pyrazin-3-yl]piperidin-1-yl}carbonyl) cyclopropane-carboxylic acid] |
|  | 0.38 | 1490 | Nc1nccn2c(C34CCC(C(=O)O)(CC3)CC4)nc(-c3ccc(C(=O)Nc4cc(C(F)(F)F)ccn4)cc3Cl)c12 [Example 151, 4-[8-amino-1-(2-chloro-4-{[4-(trifluoromethyl)pyridin-2-yl]carbamoyl}phenyl)imidazo[1,5-a]pyrazin-3-yl]bicyclo[2.2.2] octane-1-carboxylic acid] |
|  | 2.6 | 2480 | CC1(C(=O)O)CCCC(c2nc(-c3ccc(C(=O)Nc4cc(C5CC5)ccn4)cc3)c3c(N)nccn23)C1 (stereo not shown) [Example 153, 3-(8-amino-1-{4-[(4-cyclopropylpyridin-2-yl)carbamoyl]phenyl}imidazo[1,5-a]pyrazin-3-yl)-1-methylcyclohexane-carboxylic acid] |
|  | 1.1 | 3020 | C[C@@]1(C(=O)O)CCC[C@H](c2nc(-c3ccc(C(=O)Nc4cc(C5CC5)ccn4)cc3)c3c(N)nccn23)C1 [Example 159, (1R,3S)-3-(8-amino-1-{4-[(4-cyclopropylpyridin-2-yl)carbamoyl]phenyl}imidazo[1,5-a]pyrazin-3-yl)-1-methylcyclohexane-carboxylic acid] |
|  | 0.96 | 4510 | C[C@@]1(C(=O)O)CCC[C@H](c2nc(-c3ccc(C(=O)Nc4cc(C5CC5)ccn4)cc3F)c3c(N)nccn23)C1 [Example 160, (1R,3S)-3-(8-amino-1-{4-[(4-cyclopropylpyridin-2-yl)carbamoyl]-2-fluorophenyl}imidazo [1,5-a]pyrazin-3-yl)-1-methylcyclohexane-carboxylic acid] |
|  | 0.41 | 531 | Nc1nccn2c(C34CCC(C(=O)O)(CC3)CC4)nc(-c3ccc(C(=O)Nc4cc(C(F)(F)F)ccn4)cc3O)c12 [Example 161, 4-[8-amino-1-(2-hydroxy-4-{[4-(trifluoromethyl)pyridin-2-yl]carbamoyl}phenyl)imidazo[1,5-a]pyrazin-3-yl]bicyclo[2.2.2] octane-1-carboxylic acid] |
|  | 2.3 | 5540 | CC1(C(=O)O)CCC(c2nc(-c3ccc(C(=O)Nc4cc(C(F)(F)F)ccn4)cc3)c3c(N)ncc(Cl)n23)CC1 (stereo not shown) [Example 162, 4-[8-amino-5-chloro-1-(4-{[4-(trifluoromethyl)pyridin-2-yl]carbamoyl}phenyl)imidazo[1,5-a]pyrazin-3-yl]-1-methylcyclohexane-carboxylic acid] |
|  | 1.9 | 6760 | CC1(C(=O)O)CCC(c2nc(-c3ccc(C(=O)Nc4cc(C(F)(F)F)ccn4)cc3F)c3c(N)ncc(Cl)n23)CC1 (stereo not shown) [Example 163, 4-[8-amino-5-chloro-1-(2-fluoro-4-{[4-(trifluoromethyl)pyridin-2-yl]carbamoyl}phenyl)imidazo[1,5-a]pyrazin-3-yl]-1-methylcyclohexane-carboxylic acid] |
|  | 33 | 6170 | CC1(C(=O)O)CCC(c2nc(-c3ccc(C(=O)Nc4cc(C5CC5)ccn4)cc3F)c3c(N)ncc(Cl)n23)CC1 (stereo not shown) [Example 164, 4-(8-amino-5-chloro-1-{4-[(4-cyclopropylpyridin-2-yl)carbamoyl]-2-fluorophenyl}imidazo [1,5-a]pyrazin-3-yl)-1-methylcyclohexane-carboxylic acid] |
|  | 4.4 | 10000 | CCOc1cc(C(=O)Nc2cc(C(F)(F)F)ccn2)ccc1-c1nc(C2CCC(C)(C(=O)O)CC2)n2c(Cl)cnc(N)c12 (stereo not shown) [Example 165, 4-[8-amino-5-chloro-1-(2-ethoxy-4-{[4-(trifluoromethyl)pyridin-2-yl]carbamoyl}phenyl)imidazo[1,5-a]pyrazin-3-yl]-1-methylcyclohexane-carboxylic acid] |
|  | 4.3 | 10000 | COc1cc(C(=O)Nc2cc(C(F)(F)F)ccn2)ccc1-c1nc(C2CCC(C)(C(=O)O)CC2)n2c(Cl)cnc(N)c12 (stereo not shown) [Example 166, 4-[8-amino-5-chloro-1-(2-methoxy-4-{[4-(trifluoromethyl)pyridin-2-yl]carbamoyl}phenyl)imidazo[1,5-a]pyrazin-3-yl]-1-methylcyclohexane-carboxylic acid] |
|  | 760 | 10000 | Nc1nccn2c([C@@H]3C[C@@H]3C(=O)O)nc(-c3ccc(C(=O)Nc4cc(C(F)(F)F)ccn4)cc3)c12 [Example 167, (1S,2R)-2-[8-amino-1-(4-{[4-(trifluoromethyl)pyridin-2-yl]carbamoyl}phenyl)imidazo[1,5-a]pyrazin-3-yl]cyclopropane-carboxylic acid] |
|  | 0.13 | 308 | Nc1nccn2c(C34CCC(C(=O)O)(CC3)CC4)nc(-c3ccc(C(=O)Nc4cc(C(F)(F)F)ccn4)cc3)c12 [Example 168, 4-[8-amino-1-(4-{[4-(trifluoromethyl)pyridin-2-yl]carbamoyl}phenyl)imidazo[1,5-a]pyrazin-3-yl]bicyclo[2.2.2] octane-1-carboxylic acid] |
|  | 0.19 | 276 | Nc1nccn2c(C34CCC(C(=O)O)(CC3)CC4)nc(-c3ccc(C(=O)Nc4cc(C5CC5)ccn4)cc3)c12 [Example 169, 4-(8-amino-1-{4-[(4-cyclopropylpyridin-2-yl)carbamoyl]phenyl}imidazo[1,5-a]pyrazin-3-yl)bicyclo[2.2.2] octane-1-carboxylic acid] |
|  | 0.16 | 622 | Nc1nccn2c(C34CCC(C(=O)O)(CC3)CC4)nc(-c3ccc(C(=O)Nc4cc(C(F)(F)F)ccn4)cc3F)c12 [Example 170, 4-[8-amino-1-(2-fluoro-4-{[4-(trifluoromethyl)pyridin-2-yl]carbamoyl}phenyl)imidazo[1,5-a]pyrazin-3-yl]bicyclo[2.2.2] octane-1-carboxylic acid] |
|  | 0.29 | 6880 | COc1cc(C(=O)Nc2cc(C(F)(F)F)ccn2)ccc1-c1nc(C23CCC(C(=O)O)(CC2)CC3)n2ccnc(N)c12 [Example 171, 4-[8-amino-1-(2-methoxy-4-{[4-(trifluoromethyl)pyridin-2-yl]carbamoyl}phenyl)imidazo[1,5-a]pyrazin-3-yl]bicyclo[2.2.2] octane-1-carboxylic acid] |
|  | 2 | 10000 | CCOc1cc(C(=O)Nc2cc(C(F)(F)F)ccn2)ccc1-c1nc(C23CCC(C(=O)O)(CC2)CC3)n2c(F)cnc(N)c12 [Example 173, 4-[8-amino-1-(2-ethoxy-4-{[4-(trifluoromethyl)pyridin-2-yl]carbamoyl}phenyl)-5-fluoroimidazo[1,5-a]pyrazin-3-yl]bicyclo[2.2.2] octane-1-carboxylic acid] |
|  | 3.9 | 10000 | CCOc1cc(C(=O)Nc2cc(C(F)(F)F)ccn2)ccc1-c1nc(C23CCC(C(=O)O)(CC2O)C(O)C3)n2ccnc(N)c12 (stereo not shown) [Example 174, 4-(8-amino-1-(2-ethoxy-4-((4-(trifluoromethyl)pyridin-2-yl)carbamoyl)phenyl)imidazo[1,5-a]pyrazin-3-yl)-2,5-dihydroxybicyclo[2.2.2]octane-1-carboxylic acid] |
